These results are taken from ChEMBL document CHEMBL1139989, “Aminosuberoyl hydroxamic acids (ASHAs): a potent new class of HDAC inhibitors” (Bioorg Med Chem Lett, 2007).

A value given as a limit tells only on which side of the number the result lay.

The target in assay [1] is Histone deacetylase 1 (Homo sapiens, UniProt Q13547). The experiment in a line: Inhibition of human HDAC 1.
Assay [2] in a line: Antiproliferative activity against mouse SC9 cells by MTS assay. It counts as functional, cell-based.
Assay [3] relates to HCT-116. The experiment in a line: Antitumor activity against human HCT116 cells. Type of assay: functional.
The species entered for assay [4] is Mus musculus. Nature of the assay: Decrease in body weight in nude mouse. It counts as functional. Set-up: scale not given: the % may be the effect or the level left.

Sequence of Histone deacetylase 1 (Q13547 whole entry): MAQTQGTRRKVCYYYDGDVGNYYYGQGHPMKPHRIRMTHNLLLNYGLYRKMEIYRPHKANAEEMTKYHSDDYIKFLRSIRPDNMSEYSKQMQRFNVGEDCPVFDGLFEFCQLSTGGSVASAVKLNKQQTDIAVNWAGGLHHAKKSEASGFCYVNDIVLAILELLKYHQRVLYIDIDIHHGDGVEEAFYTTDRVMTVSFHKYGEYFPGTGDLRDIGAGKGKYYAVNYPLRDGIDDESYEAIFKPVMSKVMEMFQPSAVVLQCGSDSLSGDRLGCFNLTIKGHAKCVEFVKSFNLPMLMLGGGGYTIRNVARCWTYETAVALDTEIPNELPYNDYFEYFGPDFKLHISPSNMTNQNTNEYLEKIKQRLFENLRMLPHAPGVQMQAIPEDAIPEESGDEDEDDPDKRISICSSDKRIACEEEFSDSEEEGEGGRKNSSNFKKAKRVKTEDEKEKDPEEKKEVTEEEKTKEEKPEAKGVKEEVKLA

For `O=C(CCCCC[C@H](NC(=O)OCc1ccccc1)C(=O)Nc1ccc2ncccc2c1)NO`, the IC50 is 7.7 nM in assay [1] and 110 nM in assay [2].

On to `O=C(CCCCC[C@H](NC(=O)c1ccc2ccccc2n1)C(=O)Nc1ccccc1)NO`, for which the IC50 was 10 nM in assay [1] and 33 nM in assay [2].

`O=C(CCCCC[C@H](NC(=O)c1ccc2ccccc2n1)C(=O)Nc1cccc2cccnc12)NO` returned an IC50 in assay [2] of 165 nM.

For the molecule `O=C(CCCCC[C@H](NC(=O)c1ccccc1)C(=O)Nc1ccc2ncccc2c1)NO`, the IC50 in assay [1] was 3.5 nM; in assay [2] it was 90 nM.

`O=C(CCCCC[C@H](NC(=O)c1ccc2ccccc2n1)C(=O)NCc1ccccc1)NO`: the half-inhibitory concentration (IC50) in assay [1] is 51.3 nM; in assay [2] it was 374 nM.

Turning to `O=C(CCCCC[C@H](NC(=O)c1ccc2ccccc2n1)C(=O)Nc1ccc2ncccc2c1)NO`, inhibition in assay [2] was half-maximal at 107 nM (IC50).

Consider `O=C(CCCCC[C@H](NC(=O)OCc1ccccc1)C(=O)Nc1cccc2cccnc12)NO`, for which the IC50 in assay [1] came to 14.5 nM; in assay [2], 39 nM.

For the molecule `O=C(CCCCC[C@H](NC(=O)OCc1ccccc1)C(=O)Nc1ccccc1)NO`, the figures for the half-inhibitory concentration (IC50) in assay [1] and in assay [2] were 18 nM and 102 nM, respectively.

For `O=C(CCCCC[C@H](NC(=O)c1ccccc1)C(=O)NCc1ccccc1)NO`, the IC50 in assay [1] came to 93 nM; in assay [2] it was 1040 nM.

`O=C(CCCCC[C@H](NC(=O)c1ccccn1)C(=O)Nc1ccccc1)NO`: the IC50 in assay [1] came out at 11.1 nM; in assay [2], 250 nM. Besides, the TGI entry in assay [3] was “>=50%”. The Activity in assay [4] is given as less than 20%.

Turning to `O=C(CCCCC[C@H](NC(=O)c1ccccn1)C(=O)Nc1ccc2ncccc2c1)NO`, the figures for the IC50 in assay [1] and in assay [2] were 1.3 nM and 756 nM, respectively.

With `O=C(CCCCC[C@H](NC(=O)c1ccccc1)C(=O)Nc1ccccc1)NO`, the IC50 in assay [1] was found to be 12.1 nM; in assay [2], 73 nM.

As for `O=C(CCCCC[C@H](NC(=O)c1ccccc1)C(=O)Nc1cccc2cccnc12)NO`, the IC50 turned out to be 9.4 nM in assay [1] and 43 nM in assay [2]. Moreover, the TGI result in assay [3] was “>=50%”. Besides, the Activity in assay [4] is recorded as less than 20%.

For `O=C(CCCCC[C@H](NC(=O)OCc1ccccc1)C(=O)NCc1ccccc1)NO`, the results for the IC50 in assay [1] and in assay [2] were 48 nM and 412 nM, respectively.

Consider `O=C(CCCCC[C@H](NC(=O)c1ccccn1)C(=O)NCc1ccccc1)NO`, for which the IC50 in assay [1] turned out to be 120 nM; in assay [2] it was 3420 nM.

`O=C(CCCCC[C@H](NC(=O)c1ccccn1)C(=O)Nc1cccc2cccnc12)NO`: the IC50 in assay [1] is 4 nM; in assay [2], 367 nM.
